This experiment concerns the target T1, KRAS G12C 1-169, his-tagged protein, GDP-loaded (Homo sapiens, UniProt P01116, G12C).
T1 construct: KRAS G12C 1-169, his-tagged protein, GDP-loaded
The experiment is described as follows: Covalent binding (% modification) to KRAS G12C by mass spectrometry. Further: test concentration or dose not given here.

The mark [1] stands for this setting: covalent binding to KRAS G12C after a ten minute incubation period.

On to `[2H]C([2H])([2H])N(C1CN(c2nc(N3C[C@@H](C)N(C(=O)C=C)C[C@@H]3C)c3cc(Cl)c(-c4cc(O)cc5ccccc45)c(F)c3n2)C1)C([2H])([2H])[2H]` (atropisomer, axis not shown) [Compound 229], for which the Binding % entry (covalent binding to KRAS G12C after a three minute incubation period) was “+ (+ indicates binding activity greater than 0% and up to 50%)”.

As to `C=CC(=O)N1CCN(c2nc(N)nc3c(F)c(-c4c(O)cccc4F)c(Cl)cc23)C[C@H]1C` [Compound 1, 1-((2R)-4-(2-amino-6-chloro-8-fluoro-7-(2-fluoro-6-hydroxyphenyl)quinazolin-4-yl)-2-methylpiperazin-1-yl)prop-2-en-1-one], the Binding % entry under setting [1] was “++ (++ indicates binding activity from 50 to 90%)”.

Consider `C=CC(=O)N1C(C)CN(c2nc(N)nc3c(F)c(-c4c(O)cccc4F)c(Cl)cc23)CC1C` (stereo not drawn) [Compound 2, 1-(4-(2-amino-6-chloro-8-fluoro-7-(2-fluoro-6-hydroxyphenyl)quinazolin-4-yl)-2,6-dimethyl-piperazin-1-yl) prop-2-en-1-one], for which the Binding % entry under setting [1] is on record as “++ (++ indicates binding activity from 50 to 90%)”. Same read-out and setting: the value for `C=CC(=O)N1CCN(c2nc(N)nc3c(F)c(-c4c(O)cccc4F)c(Cl)cc23)C[C@@H]1C` [Compound 3, 1-((2S)-4-(2-amino-6-chloro-8-fluoro-7-(2-fluoro-6-hydroxyphenyl)quinazolin-4-yl)-2-methylpiperazin-1-yl)prop-2-en-1-one] was “++ (++ indicates binding activity from 50 to 90%)”; that for `C=CC(=O)N1CCN(c2nc(N)nc3c(F)c(-c4c(O)cccc4F)c(Cl)cc23)[C@@H](C)C1` [Compound 4, 1-((3S)-4-(2-amino-6-chloro-8-fluoro-7-(2-fluoro-6-hydroxyphenyl)quinazolin-4-yl)-3-methylpiperazin-1-yl)prop-2-en-1-one] was “++ (++ indicates binding activity from 50 to 90%)”. On to `C=CC(=O)N1CCN(c2nc(N)nc3c(F)c(-c4c(C)ccc5cn[nH]c45)c(Cl)cc23)[C@@H](C)C1` [Compound 5, 1-((3S)-4-(2-amino-6-chloro-8-fluoro-7-(6-methyl-1H-indazol-7-yl)quinazolin-4-yl)-3-methylpiperazin-1-yl)prop-2-en-1-one], for which the Binding % entry under setting [1] is “++ (++ indicates binding activity from 50 to 90%)”. On the same count and under the same terms, to `C=CC(=O)N1[C@H](C)CN(c2nc(N)nc3c(F)c(-c4c(C)ccc5cn[nH]c45)c(Cl)cc23)C[C@@H]1C` [Compound 6, 1-((2S,6R)-4-(2-amino-6-chloro-8-fluoro-7-(6-methyl-1H-indazol-7-yl)quinazolin-4-yl)-2,6-dimethyl-piperazin-1-yl) prop-2-en-1-one] belongs “++ (++ indicates binding activity from 50 to 90%)”. Regarding `C=CC(=O)N1[C@H](C)CN(c2nc(N)nc3c(F)c(-c4cc(O)cc5ccccc45)c(Cl)cc23)C[C@@H]1C` [Compound 7, 1-((2S,6R)-4-(2-amino-6-chloro-8-fluoro-7-(3-hydroxynaphthalen-1-yl)quinazolin-4-yl)-2,6-dimethyl-piperazin-1-yl) prop-2-en-1-one], the Binding % result under setting [1] is on record as “++ (++ indicates binding activity from 50 to 90%)”. `C=CC(=O)N1CCN(c2nc(N3CC(N(C)C)C3)nc3c(F)c(-c4c(O)cccc4F)c(Cl)cc23)[C@@H](C)C1` [Compound 8, 1-((3 S)-4-(6-Chloro-2-(3-(Dimethylamino)Azetidin-1-Yl)-8-Fluoro-7-(2-Fluoro-6-Hydroxyphenyl)Quinazolin-4-Yl)-3-Methylpiperazin-1-Yl)Prop-2-En-1-One]: the Binding % result under setting [1] was “+++ (+++ indicates binding activity greater than 90%)”. On the same count and under the same terms, to `C=CC(=O)N1CCN(c2nc(OCCN(CC)CC)nc3c(F)c(-c4c(O)cccc4F)c(Cl)cc23)[C@@H](C)C1` [Compound 9, 1-((3S)-4-(6-chloro-2-(2-(diethylamino)ethoxy)-8-fluoro-7-(2-fluoro-6-hydroxyphenyl)quinazolin-4-yl)-3-methylpiperazin-1-yl)prop-2-en-1-one] belongs “++ (++ indicates binding activity from 50 to 90%)”; to `C=CC(=O)N1CCN(c2nc(N)nc3c(F)c(-c4c(C)ccc5[nH]ncc45)c(Cl)cc23)[C@@H](C)C1` [Compound 10, 1-((3S)-4-(2-amino-6-chloro-8-fluoro-7-(5-methyl-1H-indazol-4-yl)quinazolin-4-yl)-3-methyl-piperazin-1-yl) prop-2-en-1-one], “+++ (+++ indicates binding activity greater than 90%)”. As to `C=CC(=O)N1CCN(c2nc(OCCN3CC(F)(F)C3)nc3c(F)c(-c4c(O)cccc4F)c(Cl)cc23)[C@@H](C)C1` [Compound 11, 1-((3S)-4-(6-chloro-2-(2-(3,3-difluoroazetidin-1-yl)ethoxy)-8-fluoro-7-(2-fluoro-6-hydroxyphenyl)quinazolin-4-yl)-3-methylpiperazin-1-yl)prop-2-en-1-one], under setting [1], the Binding % entry is recorded as “+++ (+++ indicates binding activity greater than 90%)”. Still for that read-out and setting: the value for `C=CC(=O)N1CCN(c2nc(N)nc3c(F)c(-c4cc(O)cc5ccccc45)c(Cl)cc23)[C@@H](C)C1` [Compound 12, 1-((3 S)-4-(2-Amino-6-Chloro-8-Fluoro-7-(3-Hydroxynaphthalen-1-Yl)Quinazolin-4-Yl)-3-Methylpiperazin-1-Yl)Prop-2-En-1-One] was “+++ (+++ indicates binding activity greater than 90%)”. Consider `C=CC(=O)N1[C@H](C)CN(c2nc(N)nc3c(F)c(-c4c(C)ccc5cn[nH]c45)c(Cl)cc23)C[C@@H]1C` [Compound 15, 1-((2S,6R)-4-(2-amino-6-chloro-8-fluoro-7-(6-methyl-1H-indazol-7-yl)quinazolin-4-yl)-2,6-dimethyl-piperazin-1-yl) prop-2-en-1-one], for which the Binding % result under setting [1] is given as “++ (++ indicates binding activity from 50 to 90%)”. Still for that read-out and setting: to `C=CC(=O)N1C[C@@H](C)N(c2nc(OCCN(CC)CC)nc3c(F)c(-c4c(O)cccc4F)c(Cl)cc23)[C@@H](C)C1` [Compound 16, 1-((3S,5R)-4-(6-chloro-2-(2-(diethylamino)ethoxy)-8-fluoro-7-(2-fluoro-6-hydroxyphenyl)quinazolin-4-yl)-3,5-dimethylpiperazin-1-yl)prop-2-en-1-one] belongs “++ (++ indicates binding activity from 50 to 90%)”; to `C=CC(=O)N1C[C@@H](C)N(c2nc(N)nc3c(F)c(-c4c(O)cccc4F)c(Cl)cc23)[C@@H](C)C1` [Compound 17, 1-((3S,5R)-4-(2-amino-6-chloro-8-fluoro-7-(2-fluoro-6-hydroxyphenyl)quinazolin-4-yl)-3,5-dimethylpiperazin-1-yl)prop-2-en-1-one], “++ (++ indicates binding activity from 50 to 90%)”; to `C=CC(=O)N1C[C@@H](C)N(c2nc(N)nc3c(F)c(-c4cc(O)cc5ccccc45)c(Cl)cc23)[C@@H](C)C1` [Compound 18, 1-((3S,5R)-4-(2-amino-6-chloro-8-fluoro-7-(3-hydroxynaphthalen-1-yl)quinazolin-4-yl)-3,5-dimethyl-piperazin-1-yl) prop-2-en-1-one], “++ (++ indicates binding activity from 50 to 90%)”.

With `C=CC(=O)N1[C@H](C)CN(c2nc(NC3CCN(C4CC4)CC3)nc3c(F)c(-c4c(C)ccc5cn[nH]c45)c(Cl)cc23)C[C@@H]1C` [Compound 19, 1-((2S,6R)-4-(6-Chloro-2-((1-Cyclopropylpiperidin-4-Yl)Amino)-8-Fluoro-7-(6-Methyl-1H-Indazol-7-Yl)Quinazolin-4-Yl)-2,6-Dimethylpiperazin-1-Yl)Prop-2-En-1-One], the Binding % entry under setting [1] was “++ (++ indicates binding activity from 50 to 90%)”.

Consider `C=CC(=O)N1[C@H](C)CN(c2nc(NC3CCN(C4CC4)CC3)nc3c(F)c(-c4c(O)cccc4F)c(Cl)cc23)C[C@@H]1C` [Compound 20, 1-((2R,6S)-4-(6-chloro-2-((1-cyclopropyl-piperidin-4-yl)amino)-8-fluoro-7-(2-fluoro-6-hydroxyphenyl)quinazolin-4-yl)-2,6-dimethyl-piperazin-1-yl) prop-2-en-1-one], for which, under setting [1], the Binding % result is given as “++ (++ indicates binding activity from 50 to 90%)”. Same read-out and setting: the value for `C=CC(=O)N1C[C@@H](C)N(c2nc(N3CC(N(C)C)C3)nc3c(F)c(-c4c(O)cccc4F)c(Cl)cc23)[C@@H](C)C1` [Compound 21, 1-((3S,5R)-4-(6-chloro-2-(3-(dimethylamino)azetidin-1-yl)-8-fluoro-7-(2-fluoro-6-hydroxyphenyl)quinazolin-4-yl)-3,5-dimethyl-piperazin-1-yl) prop-2-en-1-one] was “++ (++ indicates binding activity from 50 to 90%)”. The same measure, in the same setting: to `C=CC(=O)N1C[C@@H](C)N(c2nc(OCCN3CC(F)(F)C3)nc3c(F)c(-c4c(O)cccc4F)c(Cl)cc23)[C@@H](C)C1` [Compound 22, 1-((3S,5R)-4-(6-chloro-2-(2-(3,3-difluoroazetidin-1-yl)ethoxy)-8-fluoro-7-(2-fluoro-6-hydroxyphenyl)quinazolin-4-yl)-3,5-dimethyl-piperazin-1-yl) prop-2-en-1-one] belongs “++ (++ indicates binding activity from 50 to 90%)”. The same measure, in the same setting: to `C=CC(=O)N1[C@H](C)CN(c2nc(OCCN(CC)CC)nc3c(F)c(-c4c(C)ccc5cn[nH]c45)c(Cl)cc23)C[C@@H]1C` [Compound 23, 1-((2R,6S)-4-(6-chloro-2-(2-(diethylamino)ethoxy)-8-fluoro-7-(6-methyl-1H-indazol-7-yl)quinazolin-4-yl)-2,6-dimethyl-piperazin-1-yl) prop-2-en-1-one] belongs “++ (++ indicates binding activity from 50 to 90%)”; to `C=CC(=O)N1C[C@H](C)N(c2nc(N3CC(N(C)C)C3)nc3c(F)c(-c4c(O)cccc4F)c(Cl)cc23)C[C@H]1C` [Compound 24, 1-((2R,5S)-4-(6-chloro-2-(3-(dimethylamino)azetidin-1-yl)-8-fluoro-7-(2-fluoro-6-hydroxyphenyl)quinazolin-4-yl)-2,5-dimethyl-piperazin-1-yl) prop-2-en-1-one], “++ (++ indicates binding activity from 50 to 90%)”; to `C=CC(=O)N1[C@H](C)CN(c2nc(N3CC(N(C)C)C3)nc3c(F)c(-c4c(O)cccc4F)c(Cl)cc23)C[C@@H]1C` [Compound 26, 1-((2R,6S)-4-(6-chloro-2-(3-(dimethylamino)azetidin-1-yl)-8-fluoro-7-(2-fluoro-6-hydroxyphenyl)quinazolin-4-yl)-2,6-dimethyl-piperazin-1-yl) prop-2-en-1-one], “++ (++ indicates binding activity from 50 to 90%)”.

These data come from US10646488B2 (Araxes Pharma LLC, priority 2016, dated 2020).
